Data set [1] concerns the target Sulfonylurea receptor 1, Kir6.2 (Homo sapiens, UniProt Q09428+Q14654). Description: Activation of human recombinant SUR1/Kir6.2 channel expressed in HEK293 cells assessed as increase in ionic current by whole cell patch clamp assay. The class given is cell-based. (Patch clamp records ionic current or voltage across a cell membrane.)
Data set [2] in a line: Inhibition of glucose-induced insulin secretion in rat pancreatic islets assessed as residual insulin release at 50 uM. It is filed as functional, Pancreatic islet.
The next data set has as its system Aorta. Description: Myorelaxant activity in rat aortic ring assessed as inhibition of KCL-induced contraction. The class given is functional, tissue-based.
The nature of data set [3]: Inhibition of glucose-induced insulin secretion in rat pancreatic islets assessed as residual insulin release at 10 uM. The class given is functional, Pancreatic islet.
The nature of data set [4]: Inhibition of glucose-induced insulin secretion in rat pancreatic islets assessed as residual insulin release at 1 uM. The class given is functional, Pancreatic islet.
Data set [5] is described as follows: Dissociation constant, pKa of the compound. The class given is physicochemical.
Data set [6] in a line: Inhibition of glucose-induced insulin secretion in rat pancreatic islets assessed as residual insulin release at 0.1 uM. It is filed as functional, Pancreatic islet.
The nature of data set [7]: Ratio of EC50 for rat aortic ring to IC50 for rat pancreatic islets. It is filed as functional, Aorta.
Data set [8] is described as follows: Inhibition of glucose-induced insulin secretion in rat pancreatic islets assessed as residual insulin release. The class given is functional, cell-based. The following applies: Pancreatic islet.
Data set [9] has as its target Sulfonylurea receptor 1, Kir6.2 (Homo sapiens) (UniProt Q14654+Q09428). Description: Activation of human recombinant SUR1/Kir6.2 channel expressed in HEK293 cells assessed as increase in ionic current by whole cell patch clamp assay in presence of KATP channel blocker Tolbutamide. The class given is cell-based.
A short description of data set [10]: Increase in 86Rb outflow in perfused rat pancreatic islets at 10 uM in presence of extracellular calcium and glucose. It is filed as functional, Pancreatic islet.

Activity calls are given as the source filed them. No cut-off for these calls is given here. Where only a bound is given, the exact number is not on record here.

Chain of Sulfonylurea receptor 1, Kir6.2 (Q14654 whole entry): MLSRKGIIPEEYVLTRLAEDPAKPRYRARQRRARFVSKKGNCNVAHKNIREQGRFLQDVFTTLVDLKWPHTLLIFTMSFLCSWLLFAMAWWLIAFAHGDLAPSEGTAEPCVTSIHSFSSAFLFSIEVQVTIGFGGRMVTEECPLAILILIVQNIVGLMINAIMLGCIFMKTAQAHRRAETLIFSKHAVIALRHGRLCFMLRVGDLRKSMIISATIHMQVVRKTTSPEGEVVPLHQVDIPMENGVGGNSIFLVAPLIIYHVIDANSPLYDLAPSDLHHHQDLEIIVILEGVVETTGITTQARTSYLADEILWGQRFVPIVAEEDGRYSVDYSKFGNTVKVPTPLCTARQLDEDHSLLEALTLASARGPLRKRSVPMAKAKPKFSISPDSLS
Chain of Sulfonylurea receptor 1, Kir6.2 (Q09428 whole entry): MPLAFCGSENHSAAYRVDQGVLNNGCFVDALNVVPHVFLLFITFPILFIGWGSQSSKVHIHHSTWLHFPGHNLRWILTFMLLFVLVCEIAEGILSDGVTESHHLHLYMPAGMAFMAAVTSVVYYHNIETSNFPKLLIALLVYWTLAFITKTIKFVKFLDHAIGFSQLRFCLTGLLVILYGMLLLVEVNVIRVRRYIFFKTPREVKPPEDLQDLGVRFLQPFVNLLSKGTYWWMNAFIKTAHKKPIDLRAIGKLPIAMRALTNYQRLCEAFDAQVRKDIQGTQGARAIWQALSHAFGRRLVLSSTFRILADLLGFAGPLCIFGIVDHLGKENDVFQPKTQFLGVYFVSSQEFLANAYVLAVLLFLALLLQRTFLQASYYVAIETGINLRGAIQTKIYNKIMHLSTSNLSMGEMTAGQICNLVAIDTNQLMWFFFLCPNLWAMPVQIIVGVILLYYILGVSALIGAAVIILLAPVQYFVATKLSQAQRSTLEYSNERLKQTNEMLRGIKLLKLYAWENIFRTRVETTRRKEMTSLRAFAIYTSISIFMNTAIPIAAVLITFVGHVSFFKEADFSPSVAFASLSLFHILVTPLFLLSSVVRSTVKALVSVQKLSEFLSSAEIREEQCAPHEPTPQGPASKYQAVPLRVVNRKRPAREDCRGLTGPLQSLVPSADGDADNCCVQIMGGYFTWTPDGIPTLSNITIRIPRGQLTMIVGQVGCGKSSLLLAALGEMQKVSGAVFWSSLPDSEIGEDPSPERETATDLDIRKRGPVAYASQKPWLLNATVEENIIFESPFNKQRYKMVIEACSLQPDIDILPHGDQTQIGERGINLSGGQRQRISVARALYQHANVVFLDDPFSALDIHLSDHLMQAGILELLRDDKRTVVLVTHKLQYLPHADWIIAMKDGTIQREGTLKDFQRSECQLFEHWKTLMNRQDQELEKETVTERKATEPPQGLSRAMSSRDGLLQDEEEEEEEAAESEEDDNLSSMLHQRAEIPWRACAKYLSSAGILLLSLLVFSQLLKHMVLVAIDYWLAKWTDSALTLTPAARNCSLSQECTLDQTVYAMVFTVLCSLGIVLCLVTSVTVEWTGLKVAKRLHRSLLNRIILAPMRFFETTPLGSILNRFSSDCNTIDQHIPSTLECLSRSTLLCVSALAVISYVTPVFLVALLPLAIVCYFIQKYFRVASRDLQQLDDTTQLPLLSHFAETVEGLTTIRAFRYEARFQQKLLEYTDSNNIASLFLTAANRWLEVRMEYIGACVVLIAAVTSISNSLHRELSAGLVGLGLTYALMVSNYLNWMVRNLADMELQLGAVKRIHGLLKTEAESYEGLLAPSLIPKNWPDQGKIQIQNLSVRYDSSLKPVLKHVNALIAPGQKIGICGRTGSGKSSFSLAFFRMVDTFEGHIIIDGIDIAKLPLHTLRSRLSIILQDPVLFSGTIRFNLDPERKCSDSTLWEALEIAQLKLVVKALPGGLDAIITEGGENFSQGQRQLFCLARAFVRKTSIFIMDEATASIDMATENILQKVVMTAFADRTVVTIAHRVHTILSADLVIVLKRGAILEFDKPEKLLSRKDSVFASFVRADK

As to `O=S1(=O)NC(NC2CCC2)=Nc2cc(Cl)ccc21`, the EC50 – broadly, the concentration at which the effect is half-maximal – in data set [1] stood at 0.08 µM.

With `CCNC1=NS(=O)(=O)c2cccc(Cl)c2N1`, the Activity in [2] came to 80.4%. Further, the EC50 in the data set with Aorta was 90.4 µM.

Take `O=S1(=O)N=C(NC2CC2)Nc2cc(Cl)ccc21`: the figures for the Activity in data set [2], in data set [3] and in data set [4] were 7.97%, 12.74% and 93.02%, respectively. In addition, in the data set with Aorta, the 50% effective concentration (EC50) stood at 156 µM.

In the case of `CCCNC1=NS(=O)(=O)c2ccc(Cl)cc2N1`, the figures for the Activity in data set [2], in [3] and in data set [4] were 8.74%, 14.45% and 71.5%, respectively. Also, the EC50 in the data set on Aorta stood at 73.2 µM.

For the compound `O=S1(=O)N=C(NC2CCC2)Nc2c(Cl)cccc21`, the Activity in data set [2] is listed as 102.55%. The EC50 in the data set with Aorta worked out at 126 µM.

`CC(C)NC1=NS(=O)(=O)c2cc(Cl)c(Cl)cc2N1`: the Activity in data set [2] worked out at 4.96%; in [3], 6.29%; in data set [4], 13.19%.

On to `O=S1(=O)N=C(NC2CCC2)Nc2cccc(Cl)c21`, for which the values for the Activity in [3] and in [4] were 30.23% and 77.56%, respectively. Besides, in the data set on Aorta, the EC50 is over 30 µM.

Regarding `CC(C)NC1=NS(=O)(=O)c2cccc(Cl)c2N1`, in data set [5], the pKa – broadly, the pH at which an ionisable group is half protonated – was 9.11. In addition, in data set [2], the Activity is 96.88%. In the data set with Aorta, the EC50 was over 300 µM.

Take `O=S1(=O)N=C(NC2CC2)Nc2ccc(Cl)cc21`: the Activity in data set [2] came out at 5.82%; in data set [3], 26.56%; in data set [4] it was 84%. Further, the EC50 with Aorta was determined as 190 µM.

For `CCNC1=NS(=O)(=O)c2c(Cl)cccc2N1`, the Activity turned out to be 37.55% in data set [3] and 95.72% in data set [4]. In addition, the half-maximal effective concentration (EC50) with Aorta is over 300 µM.

`CC(C)NC1=NS(=O)(=O)c2cc(Cl)ccc2N1`: the Activity is on record as 5.66% in [2], 4.84% in data set [3], 90.41% in [6] and 36.19% in data set [4].

Consider `CCNC1=NS(=O)(=O)c2ccc(Cl)cc2N1`, for which the figures for the Activity in [3] and in data set [4] were 9.55% and 21.7%, respectively. For the same compound, the EC50 in the data set with Aorta turned out to be 54.8 µM.

Consider `CC(C)NC1=NS(=O)(=O)c2ccc(Cl)cc2N1`, for which the “Ratio EC50” value in data set [7] is 230. Besides, the IC50 – broadly, the concentration that gives 50% inhibition – in data set [8] turned out to be 0.23 µM. Also, the pKa in data set [5] stood at 9.35. Moreover, the Activity in [2] is on record as 6.38%; in data set [3], 7.51%; in data set [6], 76.72%; in [4], 13.2%. The EC50 with Aorta worked out at 53.4 µM.

For `CCCNC1=NS(=O)(=O)c2cc(Cl)ccc2N1`, the Activity is reported as 3.56% in data set [2], 14.24% in data set [3] and 83.41% in data set [4].

Turning to `CCNC1=NS(=O)(=O)c2cc(Cl)ccc2N1`, the Activity in data set [2] turned out to be 2.09%; in data set [3] it was 10.65%; in data set [4], 40.79%.

Take `CCCNC1=NS(=O)(=O)c2cccc(Cl)c2N1`: in data set [2], the Activity is reported as 94.69%. Further, the EC50 in the data set with Aorta was found to be 180 µM.

On to `O=S1(=O)N=C(NC2CCC2)Nc2cc(Cl)ccc21`, for which, in data set [9], the outcome was inactive. Besides, the Activity in [2] was 9.58%; in data set [3], 11.27%; in [10], 1.45 %/min; in [4], 66.17%. The EC50 in the data set on Aorta was over 300 µM.

For `O=S1(=O)N=C(NC2CCC2)Nc2ccc(Cl)cc21`, the “Ratio EC50” value in data set [7] worked out at 75. In addition, the IC50 in [8] was 0.48 µM. For the same compound, the Activity is given as 8.11% in data set [2], 6.44% in data set [3] and 60.19% in [4].

Source of the values: ChEMBL document CHEMBL1156766, “Chloro-substituted 3-alkylamino-4H-1,2,4-benzothiadiazine 1,1-dioxides as ATP-sensitive potassium channel activators: impact of the position of the chlorine atom on the aromatic ring on activity and tissue selectivity” (J Med Chem, 2010).
